One assay deals with Colo205 cells. Kind of assay: Cell-based proliferation assay for GI50 (CyQUANT), Colo205. The conditions noted are these: Homo sapiens, COLO 205, 96 h treatment, read-out: Cellular or Growth Inhibition Activity in Colo205 cells, GI50. On the procedure: Human colon cancer cell lines (Colo205, HCT116), Ovarian cancer cell line (A2780), Hepatoma cell line (HEP3B), Prostate cancer cell line (PC3) were obtained from ATCC or ECACC. Colo205 cells were cultivated in RPMI 1640 containing 2 mM L-Glutamine, 5% FBS, 1.0 mM Na Pyruvate, 1 U/ml of penicillin and 1 μg of streptomycin. HCT116 cells were cultivated in McCoy's containing RPMI 1640 containing 2 mM L-Glutamine, 5% FBS, 1 U/ml of penicillin and 1 μg of streptomycin. A2780 cells were cultivated in RPMI 1640 containing 2 mM L-Glutamine, 5% FBS, 1 U/ml of penicillin and 1 μg of streptomycin. HEP3B cells were cultivated in EMEM containing 2 mM L-glutamine, 5% FBS, 1% non essential amino acid, 1 mM Na Pyruvate, 1 U/ml of penicillin and 1 μg of streptomycin. PC3 cells were cultivated in F12K, 2 mM L-glutamine, 5% FBS, 1 U/ml of penicillin and 1 μg of streptomycin. PC3, Colo205, and HCT116 cells were seeded in 96-wells plate at 1000, 5000 and 6000 cells per well respectively. A2780 and HEP3B cells were seeded in 96-wells plate at 4000 cells per well respectively. The plates were incubated at 37° C., 5% CO2, for 24 h. Cells were treated with compounds at various concentrations for 96 h. Cell growth was then monitored using CyQUANT® cell proliferation assay (Invitrogen Pte Ltd). Dose response curves were plotted to determine GI50 values for the compounds using XL-fit (ID Business Solution, Emeryville, Calif.). GI50 is defined as the concentration of compound required for 50% inhibition of cell growth.

The target of another assay is T1, HDAC1 enzyme (Homo sapiens, UniProt Q13547).
T1 construct: Amplification of human HDAC1 coding region from this cDNA library was cloned separately into the baculovirus expression pDEST20 vector; made in house; host or cells: SF9 insect cells, pDEST20-HDAC1 baculovirus
T1 sequence (Q13547 whole entry): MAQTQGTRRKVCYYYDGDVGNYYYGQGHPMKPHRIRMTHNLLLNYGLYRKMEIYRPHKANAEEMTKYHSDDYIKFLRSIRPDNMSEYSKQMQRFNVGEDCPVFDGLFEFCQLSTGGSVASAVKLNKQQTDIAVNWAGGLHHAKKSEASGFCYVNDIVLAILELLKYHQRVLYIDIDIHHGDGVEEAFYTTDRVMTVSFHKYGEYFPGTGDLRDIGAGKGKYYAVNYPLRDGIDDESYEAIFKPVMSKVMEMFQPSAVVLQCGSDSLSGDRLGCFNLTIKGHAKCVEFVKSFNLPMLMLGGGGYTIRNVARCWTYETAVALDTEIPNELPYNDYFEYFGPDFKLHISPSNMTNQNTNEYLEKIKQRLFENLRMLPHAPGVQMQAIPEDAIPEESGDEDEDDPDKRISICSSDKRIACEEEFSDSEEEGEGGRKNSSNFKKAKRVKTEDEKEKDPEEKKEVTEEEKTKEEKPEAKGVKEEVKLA
Kind of assay: In vitro HDAC assay for determination of IC50 values (BIOMOL fluorescent-based HDAC activity assay). Format: biochemical. On the procedure: Human cDNA library was prepared using cultured SW620 cells. Amplification of human HDAC1 coding region from this cDNA library was cloned separately into the baculovirus expression pDEST20 vector (GATEWAY Cloning Technology, Invitrogen Pte Ltd). The pDEST20-HDAC1 construct was confirmed by DNA sequencing. Recombinant baculovirus was prepared using the Bac-To-Bac method following the manufacturer's instruction (Invitrogen Pte Ltd).
Expression of GST-HDAC1 was done by infecting SF9 cells (Invitrogen Pte Ltd) with pDEST20-HDAC1 baculovirus at MOI=1 for 48 h. Soluble cell lysate was incubated with pre-equilibrated Glutathione Sepharose 4B beads (Amersham) at 4° C. for 2 h. The beads were washed with PBS buffer for 3 times. The GST-HDAC1 protein was eluted by elution buffer containing 50 mM Tris, pH8.0, 150 mM NaCl, 1% Triton X-100 and 10 mM or 20 mM reduced Glutathione. The purified GST-HDAC1 protein was dialyzed with HDAC storage buffer containing 10 mM Tris, pH7.5, 100 mM NaCl and 3 mM MgCl2. 20% Glycerol was added to purified GST-HDAC1 protein before storage at −80° C.
The assay has been carried out in 96 well format and the BIOMOL fluorescent-based HDAC activity assay has been applied. […] Flur de lys Developer was added and the reaction was incubated for 10 min. Briefly, deacetylation of the substrate sensitizes it to the developer, which then generates a fluorophore. The fluorophore is excited with 360 nm light and the emitted light (460 nm) is detected on a fluorometric plate reader (Tecan Ultra Microplate detection system, Tecan Group Ltd.).
The analytical software, Prism 4.0 (GraphPad Software Inc) has been used to generate IC50 from a series of data.

A word on the GI50: it is the concentration at which growth is held to half of that of the control. For `CCCCc1nc2cc(/C=C/C(=O)NO)ccc2n1CC(C)(C)CN(C)C` [Compound 3, 3-[2-Butyl-1-(3-dimethylamino-2,2-dimethyl-propyl)-1H-benzoimidazol-5-yl]-N-hydroxy-acrylamide], the 50% growth inhibitory concentration (GI50) in the assay with Colo205 cells was 2220 nM. The term IC50 denotes the point on the concentration scale where inhibition reaches its midpoint. Lower therefore signals inhibition by little substance. Compound `CSCCc1nc2cc(/C=C/C(=O)NO)ccc2n1CC(C)(C)CN(C)C` [Compound 4, 3-[1-(3-Dimethylamino-2,2-dimethyl-propyl)-2-(2-methylsulfanyl-ethyl)-1H-benzoimidazol-5-yl]-N-hydroxy-acrylamide] showed an IC50 against HDAC1 enzyme of 120 nM. The GI50 in the assay on Colo205 cells was determined as 2620 nM. For `CCOCc1nc2cc(/C=C/C(=O)NO)ccc2n1CC(C)(C)CN(C)C` [Compound 5, 3-[1-(3-Dimethylamino-2,2-dimethyl-propyl)-2-ethoxymethyl-1H-benzoimidazol-5-yl]-N-hydroxy-acrylamide] the same measures were 170 nM and 2580 nM.

At HDAC1 enzyme, `CC(C)Cc1nc2cc(/C=C/C(=O)NO)ccc2n1CC(C)(C)CN(C)C` [Compound 6, 3-[1-(3-Dimethylamino-2,2-dimethyl-propyl)-2-isobutyl-1H-benzoimidazol-5-yl]-N-hydroxy-acrylamide] displayed an IC50 of 180 nM. Also, the GI50 in the assay with Colo205 cells amounted to 2690 nM.

On to `C#CCCc1nc2cc(/C=C/C(=O)NO)ccc2n1CC(C)(C)CN(C)C` [Compound 9, 3-[2-But-3-ynyl-1-(3-dimethylamino-2,2-dimethyl-propyl)-1H-benzoimidazol-5-yl]-N-hydroxy-acrylamide], for which the IC50 against HDAC1 enzyme stood at 210 nM. Also, in the assay on Colo205 cells, the GI50 was 1870 nM. The compound `C=CCCc1nc2cc(/C=C/C(=O)NO)ccc2n1CC(C)(C)CN(C)C` [Compound 10, 3-[2-But-3-enyl-1-(3-dimethylamino-2,2-dimethyl-propyl)-1H-benzoimidazol-5-yl]-N-hydroxy-acrylamide] gave an IC50 against HDAC1 enzyme of 140 nM. Also, the GI50 in the assay on Colo205 cells worked out at 1770 nM.

On to `CN(C)CC(C)(C)Cn1c(CCC(F)(F)F)nc2cc(/C=C/C(=O)NO)ccc21` [Compound 13, 3-[1-(3-Dimethylamino-2,2-dimethyl-propyl)-2-(3,3,3-trifluoro-propyl)-1H-benzoimidazol-5-yl]-N-hydroxy-acrylamide], for which, on HDAC1 enzyme, the IC50 was 420 nM. Also, the concentration for 50% growth inhibition (GI50) in the assay with Colo205 cells came out at 5500 nM. Taken in the same sequence, the figures for `CCOCc1nc2cc(/C=C/C(=O)NO)ccc2n1CCN(CC)CC` [Compound 15, 3-[1-(2-Diethylamino-ethyl)-2-ethoxymethyl-1H-benzoimidazol-5-yl]-N-hydroxy-acrylamide] were 85 nM and 1500 nM.

Compound `CCN(CC)CCn1c(CC(C)(C)C)nc2cc(/C=C/C(=O)NO)ccc21` [Compound 17, 3-[1-(2-Diethylamino-ethyl)-2-(2,2-dimethyl-propyl)-1H-benzoimidazol-5-yl]-N-hydroxy-acrylamide] gave an IC50 against HDAC1 enzyme of 130 nM. For the same compound, in the assay with Colo205 cells, the GI50 was determined as 1190 nM. Taken in the same sequence, the figures for `CC(C)N(CCn1c(CC(C)(C)C)nc2cc(/C=C/C(=O)NO)ccc21)C(C)C` [Compound 20, 3-[1-(2-Diisopropylamino-ethyl)-2-(2,2-dimethyl-propyl)-1H-benzoimidazol-5-yl]-N-hydroxy-acrylamide] were 260 nM and 2660 nM. Taken in the same sequence, the figures for `CC(C)Cc1nc2cc(/C=C/C(=O)NO)ccc2n1CCN(C(C)C)C(C)C` [Compound 21, 3-[1-(2-Diisopropylamino-ethyl)-2-isobutyl-1H-benzoimidazol-5-yl]-N-hydroxy-acrylamide] were 380 nM and 2510 nM.

In the case of `CN(C)CC(C)(C)Cn1c(C2CCCCC2)nc2cc(/C=C/C(=O)NO)ccc21` [Compound 24, 3-[2-Cyclohexyl-1-(3-dimethylamino-2,2-dimethyl-propyl)-1H-benzoimidazol-5-yl]-N-hydroxy-acrylamide], on HDAC1 enzyme, half-maximal inhibition (IC50) required 510 nM. Also, the GI50 in the assay on Colo205 cells is 2990 nM. As for `CN(C)CC(C)(C)Cn1c(C2CC3C=CC2C3)nc2cc(/C=C/C(=O)NO)ccc21` (stereo not shown) [Compound 25, 3-[2-Bicyclo[2.2.1]hept-5-en-2-yl-1-(3-dimethylamino-2,2-dimethyl-propyl)-1H-benzoimidazol-5-yl]-N-hydroxy-acrylamide], at HDAC1 enzyme, half-maximal inhibition (IC50) required 230 nM. Besides, the concentration for 50% growth inhibition (GI50) in the assay with Colo205 cells was found to be 2380 nM. Taken in the same sequence, the figures for `CC/C=C\CCc1nc2cc(/C=C/C(=O)NO)ccc2n1CCN(CC)CC` [Compound 26, 3-[1-(2-Diethylamino-ethyl)-2-hex-3-enyl-1H-benzoimidazol-5-yl]-N-hydroxy-acrylamide] were 40 nM and 370 nM. Take `CC/C=C\CCc1nc2cc(/C=C/C(=O)NO)ccc2n1CCN(C(C)C)C(C)C` [Compound 27, 3-[1-(2-Diisopropylamino-ethyl)-2-hex-3-enyl-1H-benzoimidazol-5-yl]-N-hydroxy-acrylamide]: it took 230 nM to reach half-maximal inhibition at HDAC1 enzyme (IC50). Moreover, the 50% growth inhibitory concentration (GI50) in the assay with Colo205 cells is 1420 nM.

For `CC/C=C\CCc1nc2cc(/C=C/C(=O)NO)ccc2n1CCNC(C)C` [Compound 28, 3-[2-Hex-3-enyl-1-(2-isopropylamino-ethyl)-1H-benzoimidazol-5-yl]-N-hydroxy-acrylamide], the IC50 at HDAC1 enzyme stood at 21 nM. The GI50 in the assay with Colo205 cells is 180 nM. For `CC/C=C\CCc1nc2cc(/C=C/C(=O)NO)ccc2n1CCCNC(C)C` [Compound 29, 3-[2-Hex-3-enyl-1-(3-isopropylamino-propyl)-1H-benzoimidazol-5-yl]-N-hydroxy-acrylamide] the same measures were 130 nM and 1920 nM. With `CCCCCCc1nc2cc(/C=C/C(=O)NO)ccc2n1CCN(CC)CC` [Compound 31, 3-[1-(2-Diethylamino-ethyl)-2-hexyl-1H-benzoimidazol-5-yl]-N-hydroxy-acrylamide], the GI50 with Colo205 cells was found to be 420 nM. In the case of `CC(Cc1nc2cc(/C=C/C(=O)NO)ccc2n1CCCNC(C)C)CC(C)(C)C` (stereo not shown) [Compound 32, N-Hydroxy-3-[1-(3-isopropylamino-propyl)-2-(2,4,4-trimethyl-pentyl)-1H-benzoimidazol-5-yl]-acrylamide], at HDAC1 enzyme, half-maximal inhibition (IC50) required 60 nM. In addition, the GI50 with Colo205 cells turned out to be 740 nM.

For `CC(C)NCCCn1c(CC(C)(C)C)nc2cc(/C=C/C(=O)NO)ccc21` [Compound 33, 3-[2-(2,2-Dimethyl-propyl)-1-(3-isopropylamino-propyl)-1H-benzoimidazol-5-yl]-N-hydroxy-acrylamide], on HDAC1 enzyme, the 50% inhibitory concentration (IC50) was 230 nM. The GI50 in the assay on Colo205 cells worked out at 2110 nM. For `CC(C)N(CCn1c(CCC(F)(F)F)nc2cc(/C=C/C(=O)NO)ccc21)C(C)C` [Compound 34, 3-[1-(2-Diisopropylamino-ethyl)-2-(3,3,3-trifluoro-propyl)-1H-benzoimidazol-5-yl]-N-hydroxy-acrylamide] the same measures were 880 nM and 4400 nM. Compound `CCNCCn1c(CC(C)(C)C)nc2cc(/C=C/C(=O)NO)ccc21` [Compound 36] registered a 50% inhibitory concentration (IC50) at HDAC1 enzyme of 96 nM. Besides, the concentration for 50% growth inhibition (GI50) in the assay with Colo205 cells turned out to be 860 nM. Turning to `CCNCCn1c(CC(C)C)nc2cc(/C=C/C(=O)NO)ccc21` [Compound 37, 3-[1-(2-Ethylamino-ethyl)-2-isobutyl-1H-benzoimidazol-5-yl]-N-hydroxy-acrylamide], inhibition against HDAC1 enzyme was half-maximal at 91 nM (IC50). The GI50 in the assay with Colo205 cells amounted to 1090 nM.

For `CCCCc1nc2cc(/C=C/C(=O)NO)ccc2n1CCN(C)C` [Compound 57, 3-[2-Butyl-1-(2-dimethylamino-ethyl)-1H-benzoimidazol-5-yl]-N-hydroxy-acrylamide], the 50% growth inhibitory concentration (GI50) with Colo205 cells was 650 nM. On HDAC1 enzyme, `O=C(/C=C/c1ccc2c(c1)ncn2C1CCN(CCCc2ccccc2)C1)NO` (stereo not shown) [Compound 98, (E)-N-hydroxy-3-(1-(1-(3-phenylpropyl)pyrrolidin-3-yl)-1H-benzo[d]imidazol-5-yl)acrylamide] registered an IC50 of 320 nM.

These data come from patent US8143282B2, “Heterocyclic compounds” (S*BIO Pte Ltd., priority 2005, dated 2012).
